Test results from PMC11480954, “Molecular determinants of resurgent sodium currents mediated by Navβ4 peptide and A-type FHFs” (Frontiers in Molecular Neuroscience, 2024).

What was measured:
Nav1.8 F1710K = test: Gating properties, Nav1.8 mutant F1710K; format: cell-based, human
Protocol: (§1) HEK293 cells and ND7/23 cells were grown under standard tissue culture conditions (5% CO2 and 37°C) in DMEM supplemented with 10% FBS, 1% penicillin and 1% streptomycin. Using Invitrogen Lipofectamine 2000, human Nav1.7 R1599P (rpNav1.7) and the mutant constructs were transiently co-transfected with Navβ1 and Navβ2 into HEK293 cells. The constructs human Nav1.8 and mutants were transiently co-transfected with FHF2B or FHF4A into ND7/23 cells. The lipofectamine-DNA mixture was added to the cell culture medium and left for 3 h after which the cells were washed with fresh medium. Cells with green fluorescent protein fluorescence were selected for whole-cell patch-clamp recordings 36–72 h after transfection.
(§2) Whole-cell voltage-clamp recordings were performed at room temperature (~21°C) using an EPC-10 amplifier and the Pulse program (HEKA Electronics). Fire-polished electrodes (0.7–1.0 MΩ) were fabricated from 1.7 mm capillary glass using a P-97 puller (Sutter Instruments), and the tips were coated with sticky wax (KerrLab) to reduce electrode capacitance and enable increased series resistance compensation. The pipette solution contained (in mM) 140 CsF, 1.1 EGTA, 10 NaCl, and 10 HEPES, pH 7.3. The bathing solution was (in mM) 130 mM NaCl, 30 mM TEA chloride, 1 mM MgCl2, 3 mM KCl, 1 mM CaCl2, 10 mM HEPES, and 10 mM d-glucose, pH 7.3 (adjusted with NaOH). […] The offset potential was zeroed before contacting the cell. After establishing the whole-cell recording configuration, the resting potential was held at −120 or −100 mV for 5 min to allow adequate equilibration between the micropipette solution and the cell interior. Linear leak subtraction, based on resistance estimates from four to five hyperpolarizing pulses applied before the depolarizing test potential, was used for all voltage clamp recordings. Membrane currents were usually filtered at 5 kHz and sampled at 20 kHz. […] Voltage errors were minimized using 80–95% series resistance compensation, and the capacitance artifact was canceled using the computer-controlled circuitry of the patch clamp amplifier. […] The concentration-dependent curves were fitted to a hill equation: Y = Bottom + (Top-Bottom)/(1 + 10^((LogEC50-X)*HillSlope)).
(§3) Families of sodium currents were induced by 50-ms depolarizing steps to various potentials ranging from −120 (or −100) to +40 mV in 5-mV increments. The conductance was calculated using the equation G(Nav) = I/(V - Vrev) in which I, V, and Vrev represent inward current value, membrane potential, and reversal potential, respectively.
(§4) Voltage dependence of steady-state inactivation was estimated using a standard double pulse protocol in which sodium currents were induced by a 50-ms depolarizing potential of 0 mV following a 500-ms prepulse at potentials that ranged from −150 to +10 mV with a 10-mV increment. Currents were plotted as a fraction of the maximum peak current. To obtain the midpoint voltages (V1/2) and slope factor (k), the curves of both steady-state activation and inactivation were fitted to a Boltzmann function.

Nav1.8 Y387K [1] = test: INaR, Nav1.8 mutant Y387K; format: cell-based, human; conditions: 1 mM FHF4A peptide, + FHF2B, ND7/23; n = 8; p > 0.05 vs Nav1.8
Protocol: as §1
(§5) Whole-cell voltage-clamp recordings were performed at room temperature (~21°C) using an EPC-10 amplifier and the Pulse program (HEKA Electronics). […]
(§6) INaR: INaR was elicited by repolarizing voltage steps from +20 to −80 mV for 100 ms (or 200 ms) in −5 mV increments, following a 20-ms depolarizing potential of +30 mV. […] The relative INaR in Nav1.7 and Nav1.8 was calculated by normalizing to the peak transient current elicited at −10 or 0 mV.

Nav1.8 N390K [2] = test: INaR, Nav1.8 mutant N390K; format: cell-based, human; conditions: 1 mM FHF4A peptide
Protocol: as §1, §5, §6

Nav1.8 N390K [3] = test: Gating properties, Nav1.8 mutant N390K; format: cell-based, human; conditions: 1 mM FHF4A peptide
Protocol: as §1, §2
as §3, with “respectively. […]” for “respectively.”

Nav1.8 Y387K [4] = test: Gating properties, Nav1.8 mutant Y387K; format: cell-based, human; conditions: 1 mM FHF4A peptide
Protocol: as §1, §2
as §3, with “respectively. […]” for “respectively.”

human Nav1.8 = test: Gating properties (steady-state activation, inactivation, INaP), Nav1.8; format: cell-based
Protocol: as §1, §2, §3, §4

[5] = Nav1.8 + FHF2B, ND7/23, 1 mM, held at −100 mV, scramble n = 8, FHF4A peptide n = 10, p > 0.05

AAAIASGLIRQKRQAREQHW [FHF4A peptide, synthetic 20-residue peptide from FHF4A A2 – W21]
V1/2 of steady-state inactivation, F1710K vs Nav1.8 (Nav1.8 F1710K; 1 mM FHF4A peptide): None of four lysine-mutations significantly changed the V1/2 value of steady-state inactivation | Inactivation (V1/2), F1710K (Nav1.8 F1710K; 1 mM FHF4A peptide, + FHF2B, ND7/23, n = 7): −41.1 ± 5.5 (7) mV | Activation (V1/2), F1710K (Nav1.8 F1710K; 1 mM FHF4A peptide, + FHF2B, ND7/23, n = 7, ***p < 0.0001): 19.9 ± 2.0*** (7) mV | INaP, F1710K (Nav1.8 F1710K; end of 50-ms pulse of +10 mV, normalized to peak transient current, 1 mM FHF4A peptide, n = 6, **p < 0.01): 0.8 ± 0.9^** (6) % | positive shift of voltage dependence of activation by F1710K (Nav1.8 F1710K; vs Nav1.8, 1 mM FHF4A peptide): 31.0 mV | average INaR amplitude at −15 mV, Y387K (Nav1.8 Y387K [1]): 5.3% ± 0.5% | voltage dependence of INaR, N390K (Nav1.8 N390K [2]): slightly shifted the voltage dependence of Nav1.8 INaR to more positive potentials | average INaR amplitude at −15 mV, N390K (Nav1.8 N390K [2]; + FHF2B, ND7/23, n = 7, p > 0.05 vs Nav1.8): 4.4% ± 0.7% | V1/2 of steady-state inactivation, N390K vs Nav1.8 (Nav1.8 N390K [3]): None of four lysine-mutations significantly changed the V1/2 value of steady-state inactivation | Activation (V1/2), N390K (Nav1.8 N390K [3]; + FHF2B, ND7/23, n = 7): −9.7 ± 1.8 (7) mV | Inactivation (V1/2), N390K (Nav1.8 N390K [3]; + FHF2B, ND7/23, n = 7): −33.5 ± 1.0 (7) mV | INaP, N390K (Nav1.8 N390K [3]; end of 50-ms pulse of +10 mV, normalized to peak transient current, n = 7, *p < 0.05): 5.6 ± 2.2^* (7) % | V1/2 of steady-state inactivation, Y387K vs Nav1.8 (Nav1.8 Y387K [4]): None of four lysine-mutations significantly changed the V1/2 value of steady-state inactivation | Activation (V1/2), Y387K (Nav1.8 Y387K [4]; + FHF2B, ND7/23, n = 10): −9.9 ± 2.1 (10) mV | Inactivation (V1/2), Y387K (Nav1.8 Y387K [4]; + FHF2B, ND7/23, n = 10): −30.7 ± 1.5 (10) mV | INaP, Y387K (Nav1.8 Y387K [4]; end of 50-ms pulse of +10 mV, normalized to peak transient current, n = 8): 3.6 ± 0.9 (8) % | effect on steady-state activation or inactivation (human Nav1.8; Nav1.8 + FHF2B, ND7/23, FHF4A peptide): did not alter steady-state activation or inactivation | V1/2 (activation), Nav1.8, Figure 6 (human Nav1.8; [5]): −12.5 ± 1.7 mV | V1/2 (inactivation), Nav1.8, Figure 6 (human Nav1.8; [5]): −42.4 ± 4.3 mV | INaP, Nav1.8 (human Nav1.8; end of 50-ms pulse of +10 mV, normalized to peak transient current, 1 mM FHF4A peptide, n = 9): 3.0 ± 1.8 (9) %
